Reference: US9044482B2, “Use of aminoindane compounds in treating overactive bladder and interstitial cystitis” (priority 2012, dated 2015)
Blank lines part the entries; values can stand above or below the compound they belong to.

Legend:
[1] = tested on: bladder function; assay: In vivo assay of bladder function (cystometry) in conscious rats; design: species or system rat
Experimental: This study was performed in order to assess the effects of compounds on various aspects of bladder function in conscious rats. See, Clouse, 2012, Urology 79(6):1410e1-1410e6. Rats were prepared with indwelling polyethylene catheters positioned into the bladder through the dome and exteriorized at the scapular level. […] pressure was monitored by connecting the catheter to a commercial strain gauge via a T-connector that permitted the infusion of solutions and drugs. Cystometric recording commenced 48 hours after catheter implantation. Animals were continuously administered saline, with or without test compounds, through the catheter, at a rate of 2 mL/hr. Urine was collected and weighed using a force transducer and intravesical pressure was continually monitored in order to assess micturition amplitude, frequency and volume and bladder capacity. Saline perfusions were supplemented with test compounds in order to determine the effects on each of the above bladder function parameters.

[2] = tested on: isolated detrusor bladder muscle; assay: In vitro assay on isolated bladder detrusor muscle strips, EFS-induced contractions in organ bath; design: species or system guinea pig; conditions: for IC50, inhibition of EFS-induced detrusor contractions: cumulative concentration-response, isolated guinea pig detrusor strips; for steady-state inhibition of EFS-induced contractile response: drug 0.01% in organ bath
Experimental: Whole bladders were removed from euthanized female guinea pigs, longitudinal detrusor muscle strips were dissected from each bladder and were mounted in a conventional glass organ bath and perfused continuously with an oxygenated Krebs solution. Detrusor contractions were elicited in response to electrical field stimulation (EFS) and were recorded using isometric force transducers linked to a data acquisition software system. After an equilibration period, tissue strips were subjected to regular EFS for a period of 30 minutes or until stable baseline contractions were attained.

[3] = tested on: micturition pattern; conditions: animal model of IC and OAB; cited from earlier work
[4] = tested on: noxious urinary bladder distention; conditions: in vivo; cited from earlier work
[5] = infusion of 0.3% solution into bladder, conscious rats

SMILES: Cc1ccccc1N(CC[C@H]1CCCC[N+]1(C)C)C1Cc2ccccc2C1.[I-] [(R)-1,1-dimethyl-2-[2-((indan-2-yl)(2-methylphenyl)amino)ethyl]piperidinium iodide]
duration of action on micturition frequency ([1]; compared to lidocaine): longer duration of action

IC50, inhibition of EFS-induced detrusor contractions [2]: ~0.0001%
SMILES: Cc1ccccc1N(CC[C@H]1CCCC[N+]1(C)C)C1Cc2ccccc2C1.[Br-] [example 43, (R)-1,1-dimethyl-2-[2-((indan-2-yl)(2-methylphenyl)amino)ethyl]piperidinium iodide]
time for which steady state inhibition was maintained after drug had been eliminated from the organ bath ([2]; 0.01%): at least 2 hours | steady-state inhibition of EFS-induced contractile response [2]: 30-45% | potency relative to lidocaine alone ([2]; from IC50 for inhibition of EFS-induced detrusor contractions): about 10 fold | period of effect on bladder capacity and micturition volume after administration ([1]; infusion of 0.3% solution): 2 h | bladder capacity [1, 5]: increase in bladder capacity | micturition volume [1, 5]: decrease in micturition volume

SMILES: CCN(CC)CC(=O)Nc1c(C)cccc1C [lidocaine, reference compound]
recovery of EFS-induced contractile response after washout ([2]; 0.01%, by 2 hours after washing out): around 80 % of predrug levels | IC50, inhibition of EFS-induced detrusor contractions [2]: ~0.001% | steady-state inhibition of EFS-induced contractile response [2]: ~40% | micturition pattern as determined by cystometry [3]: normalizes the micturition pattern

SMILES: Cc1cccc(C)c1OCC(C)N (stereo not shown) [mexilitine]
painful sensation of noxious urinary bladder distention [4]: prevents the painful sensation
